This experiment relates to CEM cells HIV-1 protection, formazan growth assay. Description: NCI AIDS Antiviral Assay. The settings on record: for IC50: measured here: growth of uninfected CEM cells. The gist of the method: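 Human CEM cells, uninfected and HIV-1-infected, exposed to five drug concentrations; growth measured by soluble formazan assay and scored as percent protection from infection, with protecting compounds retested.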

The source made the active and inactive calls.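 Rule for the calls: active = compounds giving half or more protection of infected cells from virus-caused growth loss, again on retest; inactive = the rest.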 Where a SMILES comes first, the peptide text is derived from it. [ ]: non-standard residue; d: D form. The star is where a group is joined. Phe(4-Cl) = N[CH](Cc1ccc(Cl)cc1)C(=O)O; 2Nal = N[CH](Cc1ccc2ccccc2c1)C(=O)O; 3Pal = N[CH](Cc1cccnc1)C(=O)O; Hyp = O=C(O)[CH]1C[CH](O)CN1; Cbz = O=C(OCc1ccccc1)*

What is called EC50 is the concentration needed to bring the measured effect to its halfway point. As usually defined, the IC50 is the concentration that inhibits the measured activity by half. A low value points to higher potency. Consider `CCOc1ccc(C2Oc3c(cccc3OC)C=C2[N+](=O)[O-])cc1OCC` (stereo not drawn), for which the EC50 was over 200 µM and the IC50 was determined as 3.02 µM.

As to `CC1(CO)OC(n2cc(C(=O)NC(=O)OCc3ccccc3)c(=O)[nH]c2=O)CC1O` (stereo not drawn), the EC50 is over 603 µM and the IC50 is 372 µM.

As for `CCC(C)C1(C2CCCC2)NC(=O)NC1=O` (stereo not drawn), the EC50 is over 200 µM and the IC50 is over 200 µM. For the compound `O=C1CCCC2=C1CC1=C(CCCC1=O)N2c1ccc(-c2ccccc2)cc1`, the result was inactive.

Consider `CC(C)(C)OC(=O)CC(NC(=O)OC(C)(C)C)C(=O)NC(C(=O)O)C(O)c1ccccc1` (stereo not drawn), for which the EC50 is over 200 µM and the IC50 worked out at 93.3 µM. On the same counts, the results for `Cc1nnc2c([N+](=O)[O-])c(N)c(Cl)nn12` are over 200 µM and 1.29 µM. With `CCn1ncc2c(=O)n3ncn(-c4ccc(Br)cc4)c3nc21`, the result was inactive. Take `COC1C(C)OC(OC2CC(C)(O)C(C(=O)O)c3cc4c(c(O)c32)C(=O)c2c(O)cc3c(c2C4=O)OC2OC3(C)C(O)C(N(C)C)C2O)C(OC)C1(C)OC` (stereo not drawn): the outcome was inactive. Take `CCOC(=O)c1c(-c2cc(OC)c(OC)c(OC)c2)csc1NC(=O)c1ccccc1`: the EC50 is over 200 µM and the IC50 was determined as 12.6 µM. As for `O=[N+]([O-])c1ccc2c(c1)OCCOCCOc1ccc([N+](=O)[O-])cc1OCCOCCO2`, the outcome was inactive.

With `O=C(O)/C(Cl)=C(\Cl)C(=O)Nc1ccc(Cl)cc1Cl`, the outcome was inactive. As for `COc1cc(COC(=O)N2CCCCC2C(=O)O)c([N+](=O)[O-])cc1OC` (stereo not drawn), the EC50 is over 676 µM and the IC50 worked out at 457 µM. With `NCCCN(CCCCN(CCCN)Cc1ccccc1)Cc1ccccc1`, the EC50 was 64.6 µM and the IC50 was 70.8 µM. On the same counts, the results for `CC(=O)Nc1ccc(C2CC(c3ccc([N+](=O)[O-])cc3)=Nc3ccccc3S2=O)cc1` (stereo not drawn) are over 3.31 µM and over 3.31 µM. On the same counts, the results for `CCCO/N=[N+](\[O-])N(CC)CC` are over 8910 µM and over 8910 µM. In the case of `Cn1c(O)c(C=Nc2ccccc2Cl)c(=O)n(C)c1=O`, the outcome was inactive. Take `O=C(/C=C/c1ccc([N+](=O)[O-])cc1)c1nc2ccccc2[nH]1`: the EC50 was over 200 µM and the IC50 was 4.37 µM. On the same counts, the results for `COc1cccc(C2c3cc4c(cc3OC(NNc3ccccc3)C2C)OCO4)c1O` (stereo not drawn) are over 200 µM and 11.2 µM. As to `CC1=CC2C(C=C1)S(=O)(=O)N1CC21c1ccccc1` (stereo not drawn), the result was inactive.

Regarding `Cc1ccc(-c2c3c(n(C4OC(CO)C(O)C(O)C4O)c(=S)c2C#N)CC(C)(C)CC3=O)cc1` (stereo not drawn), the EC50 is over 200 µM and the IC50 worked out at 97.7 µM.

As for `Cc1cccc(/C=N/NC(=S)NCc2ccccn2)n1`, the EC50 is over 200 µM and the IC50 came out at 29.5 µM.

In the case of `C=CC(C)(CC/C=C(\C)CCC=C(C)C)c1cc(O)c(O)c(-c2cc(C(C)(C=C)CC/C=C(\C)CCC=C(C)C)cc(O)c2O)c1` (stereo not drawn), the EC50 was over 5.75 µM and the IC50 was over 5.75 µM.

For the compound `Cc1ccccc1C1OC1C(=O)c1ccccc1N` (stereo not drawn), the EC50 was over 200 µM and the IC50 turned out to be 46.8 µM. For the compound `CCN(CC)c1cccc2c1/C(=N/O)CCCC2`, the EC50 was over 200 µM and the IC50 turned out to be 120 µM. On the same counts, the results for `O=S(=O)([O-])[O-].O=c1[nH]cnc2nc[n-]c12.[Cu+2].[OH3+].[OH3+]` are over 10.7 µM and over 10.7 µM. On the same counts, the results for `C1C2OC2C2C1C1CC2C2OC12` (stereo not drawn) are over 1510 µM and over 1510 µM. On to `Nc1cc2cc([N+](=O)[O-])ccc2oc1=O`, for which the EC50 is over 178 µM and the IC50 was over 178 µM.

For `CCC(C)C(NC(=O)c1ccccc1SC(=O)CCCC[n+]1ccccc1)C(=O)O` (stereo not drawn), the EC50 is 23.4 µM and the IC50 was over 200 µM. On the same counts, the results for `COC(=O)/C=C/c1cc(OC)c2c(c1)[C@H](C(=O)OC)[C@@H](c1ccc(O)c(OC)c1)O2` are over 20 µM and 1.02 µM. On the same counts, the results for `NC(=O)CNC(=O)C1CC(O)CN1C(=O)C1CCCN1C(=O)OCc1ccccc1` (stereo not drawn) (Cbz-Pro-[Hyp]-Gly-NH2; configuration not given here) are over 200 µM and over 200 µM. With `Nc1nc2ccccc2n1CC(=O)NC12CC3CC(CC(C3)C1)C2`, the EC50 is over 79.4 µM and the IC50 is 36.3 µM. On the same counts, the results for `O=C1NC23C4C5C6C4C2(N1)C6C53` (stereo not drawn) are over 1550 µM and 891 µM.

Consider `CCOC(=O)C(O)(NC(=O)Nc1ccc(F)cc1)C(F)(F)F` (stereo not drawn), for which the EC50 was over 200 µM and the IC50 was over 200 µM. Regarding `CC(=S)NNC(=O)c1ccncc1`, the EC50 is over 1290 µM and the 50% inhibitory concentration (IC50) was 135 µM. Consider `CC12Nc3ccccc3C1=C(c1ccccc1)CC1C(=O)OC(=O)C12` (stereo not drawn), for which the EC50 was over 15.8 µM and the IC50 is over 15.8 µM. With `O=C(CCc1ccc(O)cc1)NCCc1cccc(O)c1`, the EC50 was 43.7 µM and the IC50 was over 100 µM.

Take `O=C(/C=C/c1ccc(Cl)c(Cl)c1)c1ccc2ccccc2c1`: the EC50 was over 11.5 µM and the IC50 is over 11.5 µM. Turning to `N#C/C(=C/n1c(=S)sc2ccccc21)c1nc2ccccc2s1`, the EC50 was over 200 µM and the IC50 is 102 µM. On the same counts, the results for `CCOC(=O)c1ccn2c(c1)c(C#N)c1nc3ccccc3nc12` are over 16.6 µM and over 16.6 µM. On the same counts, the results for `O=P(O)(O)OC1C(OP(=O)(O)O)C(OP(=O)(O)O)C(OP(=O)(O)O)C(OP(=O)(O)O)C1OP(=O)(O)O.[Zn+2]` (stereo not drawn) are over 100 µM and over 100 µM.

Turning to `NC1=NC(OCC2(CO)CCC2)C=C(NCC2(CO)CCC2)N1` (stereo not drawn), the EC50 was over 200 µM and the IC50 is over 100 µM. On the same counts, the results for `S=c1nc2sc3c(c2c(Nc2ccccc2)[nH]1)CCCC3` are over 200 µM and over 200 µM. On to `O=C(O)c1cc(=O)c2c(OCC(O)COc3cccc4oc(C(=O)O)cc(=O)c34)cccc2o1`, for which the EC50 is over 200 µM and the IC50 is over 200 µM. On to `COc1c(C)c2c(c(=O)c3c(C)cccc3n2C)c2c1c(=O)c1c(C)cccc1n2C`, for which the EC50 was over 200 µM and the IC50 was determined as 155 µM. Regarding `CCOC(=O)/C(Cl)=C1\SN(C(=O)OCC)N=C1C`, the EC50 was over 102 µM and the IC50 worked out at 10.7 µM.

Take `O=C1c2ccccc2C(=O)N1N1CC1c1ccccc1` (stereo not drawn): the EC50 is over 200 µM and the IC50 came to 138 µM. On the same counts, the results for `Cc1ccc(S(=O)(=O)Nc2ccccc2NS(=O)(=O)c2ccc(C)cc2)cc1` are over 200 µM and 30.2 µM. On the same counts, the results for `C/C(O)=C(/C=N\C(=S)Nc1ccc(Cl)c(Cl)c1)C(=O)Nc1ccccc1C` are over 79.4 µM and 40.7 µM. On the same counts, the results for `COc1ccc(NC(=O)CCc2cc(C(C)(C)C)n[nH]2)cc1` are over 832 µM and over 832 µM.

Regarding `CC(=O)NC(Cc1ccc2ccccc2c1)C(=O)NC(Cc1ccc(Cl)cc1)C(=O)NC(Cc1cccnc1)C(=O)NC(CO)C(=O)NC(Cc1ccc(O)cc1)C(=O)NC(CCCN=C(N)N)C(=O)NC(CC(C)C)C(=O)NC(CCCN=C(N)N)C(=O)N1CCCC1C(=O)NC(C)C(N)=O` (stereo not drawn) (Ac-[2Nal][Phe(4-Cl)][3Pal]SYRLRPA-NH2; configuration not given here), the EC50 was over 61.7 µM and the IC50 turned out to be 15.1 µM.

As to `CCOP(=O)(OCC)C1=NC=CC=CC1n1c(-c2ccccc2)nn(CC)c1=O` (stereo not drawn), the EC50 is over 603 µM and the IC50 was found to be 417 µM. On the same counts, the results for `COC(=O)c1ccc(Nc2nc3nc[nH]c3c(=O)[nH]2)cc1` are over 200 µM and 42.7 µM. On the same counts, the results for `[N-]=[N+]=NC1CC(n2cc(Cc3ccccc3)c(=O)[nH]c2=O)OC1COC(=O)CCC(=O)O` (stereo not drawn) are over 562 µM and over 562 µM. With `N#C/C(=C\c1ccc(F)cc1)c1nc(-c2cc3ccccc3oc2=O)cs1`, the result was inactive.

Regarding `C[n+]1c(-c2ccc(NC(=O)c3ccc(C(=O)Nc4ccc(-c5cn6ccccc6[n+]5C)cc4)cc3)cc2)cn2ccccc21`, the concentration giving a half-maximal response (EC50) is over 2.63 µM and the IC50 was determined as 1.66 µM. Turning to `CC(=O)N1C(Nc2ccccn2)CCN1c1ccccc1` (stereo not drawn), the EC50 was over 200 µM and the IC50 was found to be 38 µM. For `CC1(C)N=C(N)N=C(N)N1c1ccc(Cl)c(Cl)c1`, the EC50 was over 0.01 µM and the IC50 is 0.00427 µM. On to `CC1=Nn2c(nc3sc4c(c3c2=O)CCCC4)SC1`, for which the result was inactive. In the case of `Cc1cn(C2CC(N=[N+]=[N-])C(COC(=O)CCCCCCCCCCCCl)O2)c(=O)[nH]c1=O` (stereo not drawn), the EC50 was 0.288 µM and the IC50 is 20 µM. Consider `NC(=S)N/N=C\CC(O)(C(F)(F)F)C(F)(F)F`, for which the EC50 is over 200 µM and the IC50 was over 200 µM.

For the compound `CN1C2(c3ccccc3)c3c(-c4ccccc4)sc(-c4ccccc4)c3C1(c1ccccc1)C1C(=O)N(c3ccccc3)C(=O)C12` (stereo not drawn), the outcome was inactive.

Turning to `C/C(=C/C(=O)Nn1c(Cc2ccccc2)n[nH]c1=O)C(=O)O`, the EC50 is over 200 µM and the IC50 is over 200 µM. On to `CC(=O)OCC1OC(N2C(=O)[C@@H](Oc3ccccc3)[C@H]2c2ccccc2)C(OC(C)=O)C(OC(C)=O)C1OC(C)=O` (stereo partly drawn), for which the EC50 is over 200 µM and the IC50 worked out at 174 µM.

Turning to `CNC(=S)Nc1ccc(OC)c2ccccc12`, the EC50 is over 200 µM and the IC50 was over 200 µM. For the compound `COC(CN1CCOCCOCCOCC1)CN1CCOCCOCCOCC1`, the EC50 was over 2510 µM and the IC50 was over 2510 µM. With `Cc1cc(C)c2ccc(N3CCNCC3)nc2n1`, the EC50 is over 174 µM and the IC50 was 70.8 µM. On the same counts, the results for `COc1cccc(/C=N/[N-]C(N)=O)c1[O-].[OH3+].[Zn+2]` are over 447 µM and 132 µM.

Take `CC(=O)Nc1ccccc1/C(C#N)=C/c1ccccc1`: the EC50 is over 200 µM and the IC50 was over 200 µM.

For `CC(=O)C(CN(Cc1ccccc1)Cc1ccccc1)C(c1ccccc1)c1c(O)c2ccccc2oc1=O` (stereo not drawn), the EC50 is over 170 µM and the IC50 is over 100 µM.

For the origin of these results see PubChem BioAssay AID179 (DTP/NCI, 2004).
